{"source": "patent US11723890B2", "about": "“Methods of treatment using an mTORC1 modulator” (Navitor Pharmaceuticals, Inc., priority 2019, dated 2023)", "key": {"rat": {"system": "rat", "assay": "14-day Q3D oral toxicology study in rats", "type": "in vivo", "experimental": "(§1) In rats administered 160, 500, or 1000 mg/kg PO every 3 days (Q3D) for 14 days (5 doses total), the no-observed-adverse-effect level (NOAEL) was 160 mg/kg.\n(§2) Factors Influencing Starting and Stopping Dose for compound A: The proposed starting dose of compound A (150 mg) was based on considering the NOAEL dose of compound A in the most sensitive species (160 mg/kg dosed Q3D for 14 days in rat), determining the human equivalent dose (HED) based on the body surface area difference between the two species (˜26 mg/kg, or ˜1560 mg for a 60 kg human), followed by applying a safety factor of 10 to yield the maximum recommended starting dose (MRSD). Based on the above considerations, the starting dose of compound A in the present study was 150 mg. Based on an integrated assessment of nonclinical findings with compound A, the planned maximum dose for compound A in the first-time-in-humans (FTIH) study was 2400 mg. Extrapolated on the basis of body surface area, the 2400 mg dose is equivalent to 247 mg/kg in rats and 123 mg/kg in monkeys. […] At 160 mg/kg in monkeys, the only effect was a slight decrease in heart rate (approximately 18%, or approximately 30 beats per minute, compared with vehicle).\n(§3) In addition, the present clinical study included frequent clinical laboratory tests."}, "[1]": {"assay": "14-day Q3D oral toxicology study in rats", "type": "in vivo, rat", "settings": "rat, in vivo", "experimental": "as §1, §2, §3"}, "[2]": {"system": "BDNF and BDNF receptor (NTRK2)", "assay": "Example 2: CSF BDNF and BDNF receptor (NTRK2) fragment levels", "type": "in vivo, human", "settings": "healthy males; single oral 2400 mg; FIGS. 9 and 10", "description": "Exploratory Objective(s): The exploratory objectives of this study were as follows using CSF and plasma samples collected over the same time frame as the PK samples: • conducted unbiased metabolomic analysis using validated methods as described: https://www.metabolon.com/what-we-do/our-technology. • conducted unbiased proteomic analysis using validated methods as described: https://www.biognosys.com/technology. Study Endpoints:\nPharmacokinetic, Metabolomic, and Proteomic Variables: Blood and CSF samples for the PK, metabolomics, and proteomic analysis of compound A were collected at various time points and were processed and analyzed by a validated method for determining concentrations of compound A."}, "mTORC1": {"system": "mTORC1", "assay": "mTORC1 downstream signaling and synaptic changes in medial pre-frontal cortex of rats", "type": "in vivo, rat", "settings": "layer V pyramidal neurons", "description": "Compound A [(S)-2-amino-5,5-difluoro-4,4-dimethylpentanoic acid] is a novel, orally bioavailable, specific, small molecule that activates mTORC1 pathway signaling in the brain, including those centers responsible for mood."}}}
{"smiles": "CC(C)(C[C@H](N)C(=O)O)C(F)F", "note": "[Compound A, (S)-2-amino-5,5-difluoro-4,4-dimethylpentanoic acid]", "values": [{"measurement": "human equivalent dose (HED) of rat NOAEL for a 60 kg human", "setting": "rat; based on body surface area difference, 60 kg human", "result": "~1560", "unit": "mg"}, {"measurement": "other findings, not considered adverse", "setting": "rat; rat, in vivo, po", "result": "slightly decreased lymphocyte, monocyte, and neutrophil counts"}, {"measurement": "findings at high doses", "setting": "rat; rat, in vivo, po, 500 mg/kg", "result": "lymphoid atrophy and decreased leucocyte counts"}, {"measurement": "adverse effects at 1000 mg/kg", "setting": "rat; rat, in vivo, po, 1000 mg/kg", "result": "regenerative anemia in one male, considered likely an episode of gastrointestinal (GI) bleeding, and hepatocellular injury in one male"}, {"measurement": "human equivalent dose of rat NOAEL at 14 days", "setting": "[1]; oral, 160 mg/kg, based on body surface area difference, read-out: human equivalent dose (HED) of rat NOAEL", "result": "~26", "unit": "mg/kg"}, {"measurement": "NOAEL at 14 days", "setting": "[1]; rats, 160, 500 or 1000 mg/kg PO Q3D for 14 days (5 doses), read-out: no-observed-adverse-effect level (NOAEL)", "result": 160, "unit": "mg/kg"}, {"measurement": "CSF BDNF and BDNF receptor (NTRK2) fragment levels", "setting": "[2]", "result": "rapid release of BDNF and receptor degradation"}, {"measurement": "mTORC1 downstream signaling, synaptic protein expression, synaptic arborization", "setting": "mTORC1", "result": "increase in mTORC1 downstream signaling, synaptic protein expression (e.g., GluR1 and synapsin), and synaptic arborization"}]}
